Reference: ChEMBL document CHEMBL4715814, “Design, synthesis and biological activity evaluation of novel 4-subtituted 2-naphthamide derivatives as AcrB inhibitors” (2018)
Activity calls are given as the source filed them. No cut-off for these calls is given here.

Assays:
[1] = test system: Escherichia coli; test: Potentiation of chloramphenicol-induced antibacterial activity against wild type Escherichia coli BW25113 assessed as fold reduction in chloramphenicol MIC at 128 ug/ml incubated for 18 hrs under aerobic condition by checkerboard titration assay relative to chloramphenicol MIC alone; type: functional; details: dose 128 µg/ml
[2] = test system: Escherichia coli; test: Potentiation of chloramphenicol-induced antibacterial activity against wild type Escherichia coli BW25113 assessed as fold reduction in chloramphenicol MIC at 256 ug/ml incubated for 18 hrs under aerobic condition by checkerboard titration assay relative to chloramphenicol MIC alone; type: functional; details: dose 256 µg/ml
[3] = test system: Escherichia coli; test: (§1) Antibacterial activity against Wild type Escherichia coli BW25113 assessed as inhibition of AcrB efflux pump by mesuring the glucose-induced nile red efflux at 200 uM preincubated with CCCP for 15 mins followed by compound addition after 15 mins nile red added and incubated for 3 hrs in shaker by fluorimetric analysis; type: functional, organism-based; details: time 195.0 min
[4] = test system: Cell membrane; test: Induction of outer membrane permeabilization in wild type Escherichia coli BW25113 assessed as increase in nitrocefin hydrolysis at 512 ug/ml measured for 30 mins in presence of CCCP by spectrophotometry analysis; type: subcellular; details: dose 512.0 µg/ml
[5] = test system: Escherichia coli; test: Potentiation of TPP-induced antibacterial activity against AcrB deficient Escherichia coli BW25113 assessed as TPP MIC at 128 ug/ml incubated for 18 hrs under aerobic condition by checkerboard titration assay (reference value: 256 ug/ml); type: functional; details: dose 128 µg/ml
[6] = test system: Escherichia coli; test: Potentiation of chloramphenicol-induced antibacterial activity against AcrB deficient Escherichia coli BW25113 assessed as chloramphenicol MIC at 128 ug/ml incubated for 18 hrs under aerobic condition by checkerboard titration assay (reference value: 2 ug/ml); type: functional; details: dose 128 µg/ml
[7] = test system: Escherichia coli; test: Potentiation of erythromycin-induced antibacterial activity against AcrB deficient Escherichia coli BW25113 assessed as erythromycin MIC at 128 ug/ml incubated for 18 hrs under aerobic condition by checkerboard titration assay (reference value: 32 ug/ml); type: functional; details: dose 128 µg/ml
[8] = test system: Escherichia coli; test: Potentiation of TPP-induced antibacterial activity against wild type Escherichia coli BW25113 assessed as TPP MIC at 128 ug/ml incubated for 18 hrs under aerobic condition by checkerboard titration assay (reference value: 1024 ug/ml); type: functional; details: dose 128 µg/ml
[9] = test system: Escherichia coli; test: Potentiation of chloramphenicol-induced antibacterial activity against wild type Escherichia coli BW25113 assessed as chloramphenicol MIC at 128 ug/ml incubated for 18 hrs under aerobic condition by checkerboard titration assay (reference value: 16 ug/ml); type: functional; details: dose 128 µg/ml
[10] = test system: Escherichia coli; test: Potentiation of rifampicin-induced antibacterial activity against wild type Escherichia coli BW25113 assessed as rifampicin MIC at 128 ug/ml incubated for 18 hrs under aerobic condition by checkerboard titration assay (reference value: 16 ug/ml); type: functional; details: dose 128 µg/ml
[11] = test system: Cell membrane; test: Disruption of inner membrane potential in wild type Escherichia coli BW25113 at 512 ug/ml preincubated for 10 mins followed by glucose stimulation and CCCP addition by DiOC2 probe based fluorimetric analysis; type: subcellular; details: dose 512.0 µg/ml
[12] = test system: Escherichia coli; test: Potentiation of erythromycin-induced antibacterial activity against wild type Escherichia coli BW25113 assessed as erythromycin MIC at 128 ug/ml incubated for 18 hrs under aerobic condition by checkerboard titration assay (reference value: 128 ug/ml); type: functional; details: dose 128 µg/ml
[13] = test system: Escherichia coli; test: Potentiation of erythromycin-induced antibacterial activity against wild type Escherichia coli BW25113 assessed as fold reduction in erythromycin MIC at 128 ug/ml incubated for 18 hrs under aerobic condition by checkerboard titration assay relative to erythromycin MIC alone; type: functional; details: dose 128 µg/ml
[14] = test system: Escherichia coli; test: as §1, with “500” for “200”; type: functional, organism-based; details: time 195.0 min
[15] = test system: Escherichia coli; test: Potentiation of chloramphenicol-induced antibacterial activity against AcrB deficient Escherichia coli BW25113 assessed as chloramphenicol MIC at 256 ug/ml incubated for 18 hrs under aerobic condition by checkerboard titration assay (reference value: 2 ug/ml); type: functional; details: dose 256 µg/ml
[16] = test system: Escherichia coli; test: Potentiation of TPP-induced antibacterial activity against AcrB deficient Escherichia coli BW25113 assessed as TPP MIC at 256 ug/ml incubated for 18 hrs under aerobic condition by checkerboard titration assay (reference value: 256 ug/ml); type: functional; details: dose 256 µg/ml
[17] = test system: Escherichia coli; test: Potentiation of erythromycin-induced antibacterial activity against AcrB deficient Escherichia coli BW25113 assessed as erythromycin MIC at 256 ug/ml incubated for 18 hrs under aerobic condition by checkerboard titration assay (reference value: 32 ug/ml); type: functional; details: dose 256 µg/ml
[18] = test system: Escherichia coli; test: Potentiation of TPP-induced antibacterial activity against wild type Escherichia coli BW25113 assessed as TPP MIC at 256 ug/ml incubated for 18 hrs under aerobic condition by checkerboard titration assay (reference value: 1024 ug/ml); type: functional; details: dose 256 µg/ml
[19] = test system: Escherichia coli; test: Potentiation of chloramphenicol-induced antibacterial activity against wild type Escherichia coli BW25113 assessed as chloramphenicol MIC at 256 ug/ml incubated for 18 hrs under aerobic condition by checkerboard titration assay (reference value: 16 ug/ml); type: functional; details: dose 256 µg/ml
[20] = test system: Escherichia coli; test: Potentiation of rifampicin-induced antibacterial activity against wild type Escherichia coli BW25113 assessed as rifampicin MIC at 256 ug/ml incubated for 18 hrs under aerobic condition by checkerboard titration assay (reference value: 16 ug/ml); type: functional; details: dose 256 µg/ml
[21] = test system: Escherichia coli; test: Potentiation of erythromycin-induced antibacterial activity against wild type Escherichia coli BW25113 assessed as erythromycin MIC at 256 ug/ml incubated for 18 hrs under aerobic condition by checkerboard titration assay (reference value: 128 ug/ml); type: functional; details: dose 256 µg/ml

Row | Compound | Activity [4] | MIC [8] | MIC [9] | MIC [10] | Activity [11] | MIC [12] | Activity [14] | MIC [15] | MIC [16] | MIC [17] | MIC [18] | MIC [19] | MIC [20] | MIC [21] | other results
1 | CC(C)CCOc1cc(C(=O)NC2CCCCC2)cc2ccccc12 | inactive | 1020 µg/mL | 2 µg/mL | 16 µg/mL | inactive | 16 µg/mL | – | – | – | – | – | – | – | – | fold change (FC) [1]: 8; fold change (FC) [2]: 8; Activity [3]: Active; MIC [5]: 256 µg/mL; MIC [6]: 2 µg/mL; MIC [7]: 32 µg/mL; fold change (FC) [13]: 8
2 | CC(C)CCOc1cc(C(=O)NCc2ccco2)cc2ccccc12 | inactive | 1020 µg/mL | 8 µg/mL | 16 µg/mL | Active | 64 µg/mL | Active | 2 µg/mL | 256 µg/mL | 32 µg/mL | 1020 µg/mL | 4 µg/mL | 16 µg/mL | 32 µg/mL | –
3 | CCCNC(=O)c1cc(OCc2ccccc2)c2ccccc2c1 | inactive | 1020 µg/mL | 16 µg/mL | 16 µg/mL | Active | 128 µg/mL | – | 2 µg/mL | – | – | 1020 µg/mL | 4 µg/mL | 8 µg/mL | 128 µg/mL | –
4 | NC(=O)c1cc(OCCSc2nc3ccccc3[nH]2)c2ccccc2c1 | inactive | 1020 µg/mL | 16 µg/mL | 16 µg/mL | inactive | 128 µg/mL | Active | 2 µg/mL | 256 µg/mL | 32 µg/mL | 256 µg/mL | 16 µg/mL | 16 µg/mL | 128 µg/mL | –
